Experimental data published in patent US20100222371A1, “PREVENTION OF SURGICAL ADHESIONS” (CHILDREN'S MEDICAL CENTER CORPORATION, priority 2008, published 2010).
Several values for one entry are separate records, joined by “and”; a condition that tells them apart may be missing. Equal values may be shown once. Entries after “also recorded” stand apart in the source; their conditions may differ.

How the values were obtained:
adhesion formation = assay: Mouse adhesion model (silicone patch on abdominal wall, cecal abrasion), Example 1; assay type: in vivo, C57BL/6 mice
Protocol: Ten 7 week old male C57BL/6 mice were anesthetized with isoflurane and a midline laparotomy was performed. A 5.0 mm×5.0 mm piece of sterile silicone was attached to the right abdominal wall with 7.0 prolene sutures. The cecum then was gently rubbed with 2 cotton swabs to promote adhesion formation.
Two groups of 5 mice were treated with either 40 mg/kg/day of sunitinib in methylcellulose or methyl cellulose alone beginning the day before the adhesion operation and administered daily for 10 days. After 10 days of treatment, the animals were anesthetized with avertin, sacrificed, and the adhesions were scored.
The total adhesion score was the sum of the 3 individual scores. A minimum score was 0 and the maximum score was 12. Tenacity was rated as none (0), adhesions fell apart (1), lysed with traction (2), lysed with blunt dissection (3), and lysed with sharp dissection (4). Extent was measured as the percent of the patch covered by adhesion: 0% (0), <25% (1), 25 to 50% (2), 50 to 75% (3), and >75% (4). Cecal adhesions were graded as none (0), adhesions fell apart (1), lysed with traction (2), lysed with blunt dissection (3), and lysed with sharp dissection (4). The differences between the treated and untreated groups were significant (P=0.021).

[1] = test system: intra-abdominal adhesion formation; assay: Standard mouse adhesion model (cecal abrasion, silicone patch), Example 2, sacrifice on postoperative day 10 or 30; assay type: in vivo, C57BLJ6 mice; conditions: for Median cecal: median cecal adhesion score 0-4 (IQR); for Median extent / Median tenacity: median score 0-4 (IQR); for Total score: total median adhesion score 0-12 (IQR); for intra-abdominal adhesion formation compared with control: FIG. 1, FIG. 2; for long-term intra-abdominal adhesion formation compared with control: FIG. 3
Protocol: Thirty-seven 6- to 8-wk old C57BLJ6 mice (The Jackson Laboratory, Bar Harbor, Me.) were housed in cages of five mice with food and water ad libitum. The mice were acclimated to the facility for at least 72 h prior to surgery. A standard mouse adhesion model was performed as previously described (Chiang S C., et al (2000) J Pediatr Surg 35:189). After the mice were anesthetized with inhaled isoflurane, a midline incision was made, the cecum was eviscerated, rubbed gently with two cotton swabs, and then returned to anatomical position. A silicone patch (5.0×5.0×0.127 mm) (Bentec Medical, Woodland, Calif.) was sutured to the right abdominal wall, lateral to the epigastric vessels, with 7-0 nylon. One day prior to surgery, the mice were randomly treated with sunitinib (40 mg/kg in 100 methylcellulose) or methylcellulose control (100 uL). This dose was selected based on previous studies (Morimoto A M., (2004) Oncogene 23:1618; Takahashi H., et al (2006) J Ocul Pharmacol Ther 22:213; Pietras K., et al (2005) J Clin Ocol 23:939) Both groups were treated daily by orogastric gavage at the same dose for 10 days. On postoperative day 10, the mice were sacrificed and adhesions were scored by an observer who was blinded to the treatment groups, based on a previously described scoring system (Chiang S C., et al (2000), supra). The experiment was then repeated with sacrifice on postoperative day 30. The adhesion score was based on the extent of the patch covered by adhesions, the tenacity of adhesions to the patch, and the strength of cecal adhesions. Each criterion was scored from 0-4 and the sum of the three scores was the final adhesion score. The lowest and highest possible scores were 0 and 12, respectively. The tenacity of the adhesions to the patch was scored: 0=none, 1=adhesions fell apart, 2=lysed with traction, 3=lysed with blunt dissection, 4=lysed with sharp dissection. The extent of the patch covered was scored: 0=0%, 1=<25%, 2=25% to 50%, 3=50% to 75%, 4=>75%. The tenacity of cecal adhesions was scored: 0=none, 1=adhesions fell apart, 2=lysed with traction, 3=lysed with blunt dissection, 4=lysed with sharp dissection. Statistical analysis of adhesion scores was conducted using the Mann-Whitney rank sum test. The conventional 2-tailed P-value of 0.05 was used to establish significance. The results are presented as median adhesion score and interquartile range (IQR: 25th-75th percentile). The statistical program used was SigmaStat (SPSS, Chicago, Ill.).

adhesions of the uterus = assay: Standard rabbit adhesion procedure (uterine horn abrasion), Example 3; assay type: in vivo, New Zealand white rabbits; conditions: for Extent of Uterus Covered: median percent involvement score 0-4 (IQR); for Extent of Uterus Covered / Total score / Adhesion Free Rabbits: 10 mg/kg daily for ten days; for Extent of Uterus Covered / Total score: p=0.003; for Total score: median total adhesion score (IQR); for Adhesion Free Rabbits: number of rabbits out of N = 8 surviving
Protocol: Twenty female New Zealand white rabbits underwent a standard rabbit adhesion procedure. The uterus and its bilateral horns were eviscerated, and abraded with the scalpel until punctate hemorrhages appeared. Collateral blood supply in the right mesosalpinx was tied off with 5-0 silk ties. The uterus was then returned to normal anatomic position. One day prior to surgery, the rabbits were randomly assigned to be treated with sunitinib at a dose of 10 mg/kg or saline control via orogastric gavage. Both groups were treated daily for a total of ten days. On postoperative day ten, the rabbits were sacrificed and their adhesions were scored by two observers who were blinded to their treatments. Adhesions are graded based on their tenacity (0=no adhesions, 1=adhesions fall apart, 2=adhesions lysed by traction, 3=adhesions lysed with blunt dissection, 4=adhesions lysed with sharp dissection) and the percent of uterus involved (0=none, 1=<25%, 2=25-50%, 3=51-75%, 4=>75%).

[2] = long-term, postoperative day 30, treated 10 d, n = 10, P=0.049
[3] = long-term, postoperative day 30, treated 10 d, n = 10, P=0.049, listed as sunitinib
[4] = postoperative day ten, N = 8, 10 mg/kg
[5] = postoperative day ten, N = 8, listed as Sunitinib + saline, 10 mg/kg

CCN(CC)CCNC(=O)c1c(C)[nH]c(/C=C2\C(=O)Nc3ccc(F)cc32)c1C [Sunitinib, sunitinib malate] was tested, and the “adhesion prevention vs vector only control” value (adhesion formation; 7 week old male C57BL/6 mice, Table 1 study, P=0.021) was “significantly prevention adhesion formation”, the comments (adhesion formation; observation on individual mouse at scoring, 40 mg/kg/day, 10 days) was “Looked good” and the Tenacity (adhesion formation; score of individual mouse, 0 (none) to 4 (lysed with sharp dissection), 40 mg/kg/day in methylcellulose, daily for 10 days from day before operation, scored after 10 days, listed as SU11248, 40 mg/kg/day) was 1 and 0 (3×) and 2. For the same compound, the Cecal adhesions (adhesion formation; score of individual mouse, 0 (none) to 4 (lysed with sharp dissection), 40 mg/kg/day, 10 days, listed as SU11248, 40 mg/kg/day) was 2 (2×) and 0 (2×) and 1, the Extent (adhesion formation; score of individual mouse, percent of patch covered: 0% (0), <25% (1), 25 to 50% (2), 50 to 75% (3), >75% (4), 40 mg/kg/day, 10 days, listed as SU11248, 40 mg/kg/day) was 3 (2×) and 0 (3×) and the Total (adhesion formation; total adhesion score of individual mouse, sum of 3 scores, 0-12, 40 mg/kg/day, 10 days, treated vs untreated P=0.021, listed as SU11248, 40 mg/kg/day) was 6 and 2 and 0 and 1 and 5. The Median cecal ([1]; long-term, postoperative day 30, treated 10 d, n = 10, P=0.225) was 0 (IQR 0-2.0), the Median cecal ([1]; long-term, postoperative day 30, treated 10 d, n = 10, P=0.225, listed as sunitinib) was 0.0 (IQR 0-2.0) and the Median extent [1, 2] was 0 (IQR 0-1.0). For the same compound, the Median extent [1, 3] was 0.0 (IQR 0-1.0), the Median tenacity ([1]; long-term, postoperative day 30, treated 10 d from day prior to surgery, n = 10, P=0.011) was 0 (IQR 0-0.5) and the Median tenacity ([1]; long-term, postoperative day 30, treated 10 d from day prior to surgery, n = 10, P=0.011, listed as sunitinib) was 0.0 (IQR 0.0-0.5). The Adhesion free mice ([1]; long-term, postoperative day 30, number of mice out of n = 10) was 6, the mice completely adhesion-free ([1]; long-term, postoperative day 30, six of 10 mice) was 60% and the Total score [1, 2] was 0 (IQR 0-3.0). For the same compound, the Total score [1, 3] was 0.0 (IQR 0.0-3.0), the “intra-abdominal adhesion formation compared with control” value ([1]; postoperative day 10, P=0.002) was “significantly decreased” and the “intra-abdominal adhesion formation compared with control” value ([1]; postoperative day 10, P=0.002, listed as sunitinib) was “adhesion free; also recorded: significantly decreased”. For the same compound, the Median cecal ([1]; postoperative day 10, 40 mg/kg daily gavage for 10 days, n = 18, P=0.002) was 2.0 (IQR 0-2.0), the Median extent ([1]; postoperative day 10, 40 mg/kg daily gavage for 10 days, n = 18, P vs control 0.091 (Table 3), 0.91, 40 mg/kg) was 0 (IQR 0-2.0) and the Median extent ([1]; postoperative day 10, 40 mg/kg daily gavage for 10 days, n = 18, P vs control 0.091 (Table 3), 0.91, listed as sunitinib, 40 mg/kg) was 0.0 (IQR 0-2.0). For the same compound, the Median tenacity ([1]; postoperative day 10, 40 mg/kg daily orogastric gavage for 10 days, n = 18, P vs control 0.068 (Table 3), 0.68, 40 mg/kg) was 0 (IQR 0-1.0), the Median tenacity ([1]; postoperative day 10, 40 mg/kg daily orogastric gavage for 10 days, n = 18, P vs control 0.068 (Table 3), 0.68, listed as sunitinib, 40 mg/kg) was 0.0 (IQR 0.0-1.0) and the Adhesion free mice ([1]; postoperative day 10, number of mice out of n = 18, 40 mg/kg daily for 10 days) was 6. For the same compound, the mice completely adhesion-free ([1]; postoperative day 10, six of 18 mice, 40 mg/kg daily for 10 days) was 33.3%, the Total score ([1]; postoperative day 10, 40 mg/kg daily gavage for 10 days, n = 18, P=0.002, 40 mg/kg) was 2.0 (IQR 0-5.0) and the Total score ([1]; postoperative day 10, 40 mg/kg daily gavage for 10 days, n = 18, P=0.002, listed as sunitinib, 40 mg/kg) was 2.0 (IQR 0.0-5.0). The “long-term intra-abdominal adhesion formation compared with control” value ([1]; postoperative day 30, P=0.049) was “significantly decreased”, the “long-term intra-abdominal adhesion formation compared with control” value ([1]; postoperative day 30, P=0.049, listed as sunitinib) was “decreased” and the “abdominal cavity adhesions in micrograph” value (adhesions of the uterus; FIG. 4, treated rabbit) was “free from abdominal cavity adhesions”. For the same compound, the “Extent of Uterus Covered” value (adhesions of the uterus; [4]) was 1.0 (IQR 0-1.0; range 0-1), the “Extent of Uterus Covered” value (adhesions of the uterus; [5]) was 1.0 and the “Tenacity to Uterus” value (adhesions of the uterus; median score 0-4 (IQR), 10 mg/kg daily orogastric gavage for ten days from day prior to surgery, postoperative day ten, N = 8, p=0.004, listed as Sunitinib + saline, 10 mg/kg) was 1.0. For the same compound, the “Total score” value (adhesions of the uterus; [4]) was 2 (IQR 0-2.75; range 0-3), the “Total score” value (adhesions of the uterus; [5]) was 2.0 and the “Adhesion Free Rabbits” value (adhesions of the uterus; postoperative day ten, 10 mg/kg) was “Three of the eight”. For the same compound, the “Adhesion Free Rabbits” value (adhesions of the uterus; postoperative day ten, listed as Sunitinib + saline, 10 mg/kg) was 3.
